In PubChem BioAssay AID330 (DTP/NCI, 2004) one finds T/C data, which are given here for 23 compounds.

Where “and” joins values, the source holds several entries; their conditions need not be identical. Equal values may be shown once. Toxic doses and inconclusive results are not listed.

The subject of the experiment is P388 leukemia ip, CD2F1 mice, survival T/C. In words: NCI In Vivo Anticancer Drug Screen. Data for tumor model P388 Leukemia (intraperitoneal) in CD2F1 (CDF1) mice. Conditions: endpoint: median survival time, higher = longer survival. Put shortly:
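Mice carrying the transplanted tumor received test compound or vehicle. Survival was recorded in each group, and the value is the treated-group measurement divided by that of the vehicle-treated control group.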

Setting [1] is: dose: 50.0 mg/kg/injection, schedule: Q01DX009 (ip), vehicle: saline with Tween-80.
The mark [2] stands for this setting: dose: 100.0 mg/kg/injection, schedule: Q01DX009 (ip), vehicle: saline with Tween-80.
Setting [3] is: dose: 200.0 mg/kg/injection, schedule: Q01DX009 (ip), vehicle: saline with Tween-80.
[4] abbreviates: dose: 50.0 mg/kg/injection, schedule: Q01DX005 (ip), vehicle: Klucel (hydroxypropylcellulose) (HPC).
Where [5] appears, read: dose: 100.0 mg/kg/injection, schedule: Q01DX005 (ip), vehicle: Klucel (hydroxypropylcellulose) (HPC).
Setting [6] is: dose: 50.0 mg/kg/injection, schedule: Q01DX005 (ip), vehicle: saline with Tween-80.
The mark [7] stands for this setting: dose: 100.0 mg/kg/injection, schedule: Q01DX005 (ip), vehicle: saline with Tween-80.
The mark [8] stands for this setting: dose: 200.0 mg/kg/injection, schedule: Q01DX005 (ip), vehicle: saline with Tween-80.
[9] abbreviates: dose: 100.0 mg/kg/injection, schedule: Q04DX002 (ip), vehicle: saline with Tween-80.
[10] abbreviates: dose: 200.0 mg/kg/injection, schedule: Q04DX002 (ip), vehicle: saline with Tween-80.
Setting [11] is: dose: 400.0 mg/kg/injection, schedule: Q04DX002 (ip), vehicle: saline with Tween-80.

As to `CCN(CC)CCNc1ccc(C)c2sc3c(N)cccc3c(=O)c12`, the T/C is, setting by setting: under setting [1], 100 % of control; under setting [2], 113 % of control; under setting [3], 123 % of control.
Regarding `CNP1(NC)=N[P@@](NC)(N2CC2)=NP(NC)(N2CC2)=N1` (stereo partly specified), the T/C by setting is: (dose: 1.87 mg/kg/injection, schedule: Q01DX005 (ip), vehicle: saline) 102 % of control; (dose: 7.5 mg/kg/injection, schedule: Q01DX005 (ip), vehicle: saline) 158 % of control and 185 % of control; (dose: 15.0 mg/kg/injection, schedule: Q01DX005 (ip), vehicle: saline) 171 % of control and 227 % of control.
Turning to `CCCCc1ccc(C(N)=O)nc1`, the T/C under setting [4] was 104 % of control and the T/C under setting [5] was 99 % of control.
With `CC(=O)OC1CCC2(C)OC(=O)CC2C1` (stereo unspecified), the T/C reads like this: under setting [6], 98 % of control; under setting [7], 100 % of control; under setting [8], 100 % of control.
For the compound `C/C=C1/CC2C=Nc3cc(O)c(OC)cc3C(=O)N2C1` (stereo unspecified), the T/C was 157 % of control (dose: 1.0 mg/kg/injection, schedule: Q01DX005 (ip), vehicle: saline + alcohol); 98 % of control (dose: 50.0 micrograms/kg/injection, schedule: Q01DX005 (ip), vehicle: saline + alcohol); 110 % of control (dose: 100.0 micrograms/kg/injection, schedule: Q01DX005 (ip), vehicle: saline + alcohol); 116 % of control (dose: 200.0 micrograms/kg/injection, schedule: Q01DX005 (ip), vehicle: saline + alcohol); 120 % of control (dose: 400.0 micrograms/kg/injection, schedule: Q01DX005 (ip), vehicle: saline + alcohol).
As for `CC1=C(C(=O)O)CCC1(C)C`, the T/C under setting [9] is 98 % of control, the T/C under setting [10] was 101 % of control and the T/C under setting [11] was 104 % of control.
For `CC(C)(C)S.[Ge]`, the T/C is, setting by setting: (dose: 7.5 mg/kg/injection, schedule: Q01DX009 (ip), vehicle: saline with Tween-80) 106 % of control; (dose: 15.0 mg/kg/injection, schedule: Q01DX009 (ip), vehicle: saline with Tween-80) 107 % of control; (dose: 30.0 mg/kg/injection, schedule: Q01DX009 (ip), vehicle: saline with Tween-80) 103 % of control.
Regarding `CCC(C)(C(=O)Nc1ccc2nc(C)cc(N)c2c1)C(=O)Nc1ccc2nc(C)cc(N)c2c1`, the T/C was 87 % of control under setting [6], 96 % of control under setting [7] and 100 % of control under setting [8].
Turning to `c1ccc2sc(SCCCCCCCCCCCCSc3nc4ccccc4s3)nc2c1`, the T/C (dose: 50.0 mg/kg/injection, schedule: Q01DX005 (ip), vehicle: Klucel + Tween-80) is 98 % of control; the T/C (dose: 100.0 mg/kg/injection, schedule: Q01DX005 (ip), vehicle: Klucel + Tween-80) was 94 % of control; the T/C (dose: 200.0 mg/kg/injection, schedule: Q01DX005 (ip), vehicle: Klucel + Tween-80) is 96 % of control.
In the case of `COc1cccc2c1C(=O)c1c(O)c3c(c(O)c1C2=O)C[C@@](O)(C(C)=O)C[C@@H]3OC1CC(N(CCO)Cc2ccccc2)C(O)C(C)O1` (stereo partly specified), the T/C (dose: 4.0 mg/kg/injection, schedule: Q04DX003 (ip), vehicle: water) is 105 % of control; the T/C (dose: 8.0 mg/kg/injection, schedule: Q04DX003 (ip), vehicle: water) was 113 % of control; the T/C (dose: 12.5 mg/kg/injection, schedule: Q04DX003 (ip), vehicle: water) is 114 % of control; the T/C (dose: 32.0 mg/kg/injection, schedule: Q04DX003 (ip), vehicle: water) was 155 % of control; the T/C (dose: 50.0 mg/kg/injection, schedule: Q04DX003 (ip), vehicle: water) was 172 % of control; the T/C (dose: 64.0 mg/kg/injection, schedule: Q04DX003 (ip), vehicle: water) was 179 % of control. Besides, the T/C by setting is: (dose: 100.0 mg/kg/injection, schedule: Q04DX003 (ip), vehicle: water) 223 % of control; (dose: 128.0 mg/kg/injection, schedule: Q04DX003 (ip), vehicle: water) 240 % of control; (dose: 200.0 mg/kg/injection, schedule: Q04DX003 (ip), vehicle: water) 124 % of control.
`COc1ccc(C(Cl)c2ccc(OC)c(OC)c2)cc1OC`: the T/C by setting is: (dose: 25.0 mg/kg/injection, schedule: Q01DX009 (ip), vehicle: other) 100 % of control; (dose: 50.0 mg/kg/injection, schedule: Q01DX009 (ip), vehicle: other) 90 % of control; (dose: 100.0 mg/kg/injection, schedule: Q01DX009 (ip), vehicle: other) 97 % of control.
In the case of `S=C(SSC(=S)Sc1ccccc1)Sc1ccccc1`, the T/C is 112 % of control (dose: 100.0 mg/kg/injection, schedule: Q04DX002 (ip), vehicle: Klucel (hydroxypropylcellulose) (HPC)); 107 % of control (dose: 200.0 mg/kg/injection, schedule: Q04DX002 (ip), vehicle: Klucel (hydroxypropylcellulose) (HPC)); 102 % of control (dose: 400.0 mg/kg/injection, schedule: Q04DX002 (ip), vehicle: Klucel (hydroxypropylcellulose) (HPC)).
Regarding `CS/C(N)=N\NC(=O)COc1ccc(Cl)cc1`, the T/C under setting [6] is 100 % of control, the T/C under setting [7] was 106 % of control and the T/C under setting [8] was 100 % of control.
Consider `Cc1cccc(C)c1NC(=O)CCC(=O)O`, for which the T/C runs as follows: under setting [4], 104 % of control; under setting [5], 102 % of control; (dose: 200.0 mg/kg/injection, schedule: Q01DX005 (ip), vehicle: Klucel (hydroxypropylcellulose) (HPC)) 103 % of control.
In the case of `Cc1cc2c(cc1[N+](=O)[O-])NC(CNC(C)C)CC2` (stereo unspecified), the T/C was 101 % of control under setting [1], 105 % of control under setting [2] and 108 % of control under setting [3].
For the compound `CCSC(C#N)C(C)=O` (stereo unspecified), the T/C is 106 % of control (dose: 12.5 mg/kg/injection, schedule: Q01DX009 (ip), vehicle: saline); 97 % of control (dose: 25.0 mg/kg/injection, schedule: Q01DX009 (ip), vehicle: saline); 100 % of control under setting [1]; 100 % of control (dose: 50.0 mg/kg/injection, schedule: Q01DX009 (ip), vehicle: saline).
Turning to `COC(=O)N/N=C(/CC1(O)C(=O)Nc2ccc(Br)cc21)c1ccc(Cl)cc1Cl` (stereo unspecified), the T/C runs as follows: under setting [9], 89 % of control; under setting [10], 95 % of control; under setting [11], 100 % of control.
`C=CC1CCCCC1=O` (stereo unspecified): the T/C reads like this: under setting [6], 110 % of control; under setting [7], 111 % of control; under setting [8], 111 % of control.
Consider `O=C1OCN2C(=O)CCC12` (stereo unspecified), for which the T/C is 109 % of control (dose: 60.0 mg/kg/injection, schedule: Q01DX005 (ip), vehicle: saline); 97 % of control (dose: 120.0 mg/kg/injection, schedule: Q01DX005 (ip), vehicle: saline); 86 % of control (dose: 240.0 mg/kg/injection, schedule: Q01DX005 (ip), vehicle: saline).
As to `Cc1noc(C)c1-c1onc2ccc(Cl)cc12`, the T/C is 96 % of control (dose: 100.0 mg/kg/injection, schedule: Q01DX009 (ip), vehicle: Klucel (hydroxypropylcellulose) (HPC)) and 96 % of control (dose: 200.0 mg/kg/injection, schedule: Q01DX009 (ip), vehicle: Klucel (hydroxypropylcellulose) (HPC)).
For `C=CCCCN1C(=O)CCC1=O`, the T/C runs as follows: (dose: 50.0 mg/kg/injection, schedule: Q01DX005 (ip), vehicle: saline) 105 % of control; (dose: 100.0 mg/kg/injection, schedule: Q01DX005 (ip), vehicle: saline) 97 % of control; (dose: 200.0 mg/kg/injection, schedule: Q01DX005 (ip), vehicle: saline) 100 % of control.
In the case of `CC1C/C=C\COC(=O)CC(C)(C)CC1=O` (stereo unspecified), the T/C by setting is: (dose: 100.0 mg/kg/injection, schedule: Q04DX003 (ip), vehicle: saline) 99 % of control; (dose: 200.0 mg/kg/injection, schedule: Q04DX003 (ip), vehicle: saline) 99 % of control; (dose: 400.0 mg/kg/injection, schedule: Q04DX003 (ip), vehicle: saline) 95 % of control.
On to `C[C@@H]1C[C@@H](O)[C@]2(O)O[C@@H]3C[C@@]4(C=O)[C@@H](CC=C5[C@@H]4CC[C@]4(C)C(C6=CC(=O)OC6)CC[C@]54O)C[C@H]3O[C@@H]2O1` (stereo partly specified), for which the T/C is, setting by setting: (dose: 1.75 mg/kg/injection, schedule: Q01DX005 (ip), vehicle: saline with Tween-80) 94 % of control; (dose: 3.5 mg/kg/injection, schedule: Q01DX005 (ip), vehicle: saline with Tween-80) 100 % of control; (dose: 7.0 mg/kg/injection, schedule: Q01DX005 (ip), vehicle: saline with Tween-80) 98 % of control.
